Patent publication US12630523B2, “Isoquinoline derivatives for use as antiviral and antitumour agents” (priority 2021, dated 2026)
Like-named read-outs stand apart in the source and are kept apart here.

Tests used:
Assay type in all cases: cell-based
HPV16 E7 protein = biological target: T1, HPV16 E7 protein (Human papillomavirus type 16, UniProt P03129); settings: CaSki cells; for % Dad: adjusted degradation, CHX steady state set to 100% degradation
T1 construct: endogenous in cells; host or cells: CaSki cells (HPV16-positive cervical carcinoma)
Procedure: For intracellular antibody labeling, 0.5×10^6 cells are washed once with 1 ml ice-cold PBS. Cells are centrifuged at 350×g for 5 minutes at 4° C. and then fixed in 1% paraformaldehyde (1 ml/10^6 cells) for 20 minutes at 4° C. Cells are washed with 1 ml ice-cold PBS and centrifuged at 350×g for 5 minutes at 4° C. To permeabilize cells, 100% ice-cold methanol (1 ml/10^6 cells) is added to the cells and incubated for 20 minutes at 4° C. followed by centrifugation at 350×g for 5 minutes at 4° C. Cells are washed with 1 ml ice-cold PBS, centrifuged at 350×g for 5 minutes at 4° C. and resuspended in 0.1% saponin+2% FBS in PBS (ice-cold). Cells are left for 20-30 minutes at room temperature to reduce the background signal and then centrifuged at 350×g for 5 minutes at 4° C. The primary antibody (mAb_HPV16E7-1 (VS13004); concentration 1 μg/μl) is diluted in 0.1% saponin+2% FBS (dilution 0.25 μg/50 μl of incubation buffer per 1×10^6 cells (5 ng/μl)). Cells are incubated with primary antibody for 30 minutes at room temperature, washed with 0.1% saponin+2% FBS and centrifuged at 350×g for 5 minutes at 4° C. The secondary antibody (FITC conjugated goat anti-mouse IgG1-IgM, BD, cat. #555988) is diluted in 0.1% saponin+2% FBS (dilution 1:50). Cells are incubated with secondary antibody for 30 minutes at room temperature, washed once with 0.1% saponin+2% FBS, once with PBS and centrifuged at 350×g for 5 minutes at 4° C.
Cells are resuspended in 700 μl PBS prior to CF analysis with a Beckman Coulter FC 500 MPL, (excitation laser 488 nm). Data analysis is done using the Beckman Coulter software packages MXP for acquisition and CXP for data analysis which includes MFI calculation. Detection of HPV-E7 protein expression is based on morphology back-gating of FL1 histogram (logarithmic scale) with gating for dot plot FS (Forward Scatter) log/SS (Sideward Scatter) log and gating for histograms SS log.
In order to define the level of E7 protein expression and to study the extent of E7 protein steady state level reduction in E7 expressing cells in the presence of various compounds, FC analysis is implemented using the intracellular antibody labeling procedure for monoclonal antibodies to HPV E7. E7 signal intensities are analyzed from the obtained FL1 histograms at logarithmic scale. The FL1 single histogram graph represents the variation in the mean fluorescence intensity (MFI) channel for cells treated with selected compounds compared to cells not incubated with primary antibodies but incubated with secondary, which allows to test for auto-fluorescence, and non-compound treated cells as controls. Non-primary antibody-stained cells are used to set the acquisition parameters to zero. Decrease of the mean fluorescence intensity channel corresponds to a decrease in the expression of HPV16 E7 protein. Degradation of E7 in cells is calculated as percent (%) reduction in MFI(x-Me) using the following formulas: % Drel=(T−C)/T*100; i) relative degradation: % Dad=(T−C)/(T−CHX)*100; ii) adjusted degradation: • Drel=relative degradation, • Dad=adjusted degradation assuming CHX % Drel=100; • T=MFI of non-treated cells; • C=MFI of compound treated cells; • CH=MFI of cycloheximide (CHX) treated cells;
For comparison within one experiment i) the % relative degradation (Drel) is sufficient, whereas for comparison between two or more experiments ii) the adjusted degradation (Dad) is used and CHX steady state is set to a 100% degradation parameter.
1×10^6 freshly seeded CaSki cells (ATCC CRL-7915), are grown in 10 cm diameter cell culture dishes in RPMI1640, 10% FCS medium at 37° C. 5% CO2 overnight and then incubated in the presence of 10 μM Cycloheximide (CHX) 10 μM OC246 or with vehicle alone for four hours at 37° C. 5% CO2. Following this E7 protein is assessed by cytofluorimetric analysis using intracellular HPV16 E7 antibody labeling. […]

[1] = system: CaSki (ATCC CRM-CRL-1550); test: Monolayer assay using Sulphorhodamine B (SRB) staining, CaSki; settings: Homo sapiens, Ca-Ski
Procedure: Various cell culture cells grown as monolayers are harvested from exponential growing cultures after treatment with various OC compounds at different concentrations. For this depending on the cell line, 10.000 to 30.000 cells were plated in 96-well flat-bottom microtiter plates. After a 24 h recovery period to allow cells to resume exponential growth, supernatants are discarded and 100 μl of culture medium (eight control wells/plate) or culture medium with the test compound are added by a liquid handling robotic system (Microlab® Starlet, Hamilton) and treatment continued for 72 hrs. Compounds are applied at 9 concentrations and eight wells/concentration). At least three independent experiments are performed. For SRB staining, cells are fixed with SRB01 (Tab. 5) for 1 h at 4° C. (final concentration of TCA=10%) washed with a plate washer (Hydroflex, Tecan©) for five times with H2O; and stained with 100 μl of SRB02 at room temperature for 10 min following 4 washes in SRB03 and finally 100 μl of developer solution SRB04 for 5 minutes with shaking. Optical density is assessed using a plate-reader (Sunrise, Tecan©) at 540 nm.
Concentrations required for half maximal response of the compound for cell growth inhibition (EC50) is calculated by non-linear regression (log[conc. of inhibitor] versus response (% T/C)) using the analysis software GraphPad Prism®, Prism 5 for windows, version 5.01 (GraphPad Software Inc., CA).

[2] = system: SARS-CoV-2 isolate BetaCov/Belgium/GHB-03021/2020; test: microbe, parasite or virus in culture; settings: 1.25 μM (non-toxic compound concentration), n4; for inhibition at 1.25 µM: Severe acute respiratory syndrome coronavirus 2
[3] = SRB assay from Caski cells, “0” = no activity detected with the concentrations tested, read-out: EC50 mean

T1 sequence (P03129 whole entry): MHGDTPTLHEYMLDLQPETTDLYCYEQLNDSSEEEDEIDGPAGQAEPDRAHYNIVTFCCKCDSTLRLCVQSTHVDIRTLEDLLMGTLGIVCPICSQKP

Compound | % Dad (HPV16 E7 protein) [%] | inhibition at 1.25 µM [2] [%] | also measured
COc1ccc2c(c1)C(=O)N(Cc1ccc(C)cc1)[C@@H](c1ccc(C(F)(F)F)cc1)[C@@H]2C(=O)Nc1cccc(N2CCN(C)CC2)c1 (relative stereo) [OC969] | 66 |  | 
CC(=O)Nc1ccc2c(c1)C(=O)N(Cc1ccc(C)cc1)[C@@H](c1ccc(C(F)(F)F)cc1)[C@@H]2C(=O)Nc1cccc(N2CCN(C)CC2)c1 (relative stereo) [OC970] | 20 | 3.03 | EC50 ([1]; read-out: EC50 mean [nM]): 5550 nM
COc1cc2c(cc1OC)[C@@H](C(=O)Nc1cccc(N3CCN(C)CC3)c1)[C@H](c1ccc(C(F)(F)F)cc1)N(Cc1ccc(C)cc1)C2=O (relative stereo) [OC971] | 26 |  | 
C[C@@H]1C[C@@H]([C@H](O)CC2CC(=O)NC(=O)C2)C(=O)[C@@H](C)C1 [CHX, Cycloheximide, reference compound] |  |  | % Drel (relative degradation) (HPV16 E7 protein; 10 μM, four hours): 78.78%; % Dab (adjusted degradation) (HPV16 E7 protein; 10 μM, four hours, CHX set to 100): 100%; MFI (mean fluorescence intensity) of E7 signal (HPV16 E7 protein; 10 μM, four hours, vehicle T 8.06): 1.71
O=C(NOCC1CC1)c1ccc(F)c(F)c1Nc1ccc(I)cc1Cl [CI-1040, 2-(2-Chloro-4-iodophenylamino)-N-(cyclopropylmethoxy)-3,4-difluorobenzamide, reference compound] |  | 146 | 
COc1ccc2cc1Oc1ccc(cc1)C[C@H]1c3c(cc4c(c3Oc3cc5c(cc3OC)CCN(C)[C@@H]5C2)OCO4)CCN1C [Cepharantin, reference compound] |  |  | % Inhibition [2]: 2.32%
c1c2c(cc3c1OCO3)-c1cc3ccc4c(c3c[n+]1CC2)OCO4 [Coptisin, reference compound] |  |  | % Inhibition [2]: 98.97%
CS(=O)(=O)O.Cc1c(O)cccc1C(=O)N[C@@H](CSc1ccccc1)[C@H](O)CN1C[C@H]2CCCC[C@H]2C[C@H]1C(=O)NC(C)(C)C [Neifinavir-Mesylat, reference compound] |  |  | % Inhibition [2]: 9.49%
Cc1ccc(CN2C(=O)c3ccccc3C(C(=O)Nc3cccc(N4CCN(C)CC4)c3)C2c2ccc(Cl)c(Cl)c2)cc1 (centres unmarked) [OC245] | 0 |  | 
Cc1ccc(CN2C(=O)c3ccccc3C(C(=O)Nc3cccc(N4CCN(C)CC4)c3)C2c2ccc(Br)cc2)cc1 (centres unmarked) [OC247] | 6 | 30.6 | EC50 ([1]; read-out: EC50 mean [nM]): 6730 nM
Cc1ccc(CN2C(=O)c3ccccc3C(C(=O)NCCN(C)C)C2c2ccc(Cl)cc2)cc1 (centres unmarked) [OC250] | 19 |  | 
Cc1ccc(CN2C(=O)c3ccccc3C(C(=O)NCCN3CCCC3)C2c2ccc(Cl)cc2)cc1 (centres unmarked) [OC251] | 1 |  | 
COCCNC(=O)C1c2ccccc2C(=O)N(Cc2ccc(C)cc2)C1c1ccc(Cl)cc1 (centres unmarked) [OC252] | 0 |  | 
Cc1ccc(CN2C(=O)c3ccccc3C(C(=O)NCc3ccc(N(C)C)cc3)C2c2ccc(Cl)cc2)cc1 (centres unmarked) [OC254] | 16 |  | 
Cc1ccc(CN2C(=O)c3ccccc3C(C(=O)NCc3cccnc3)C2c2ccc(Cl)cc2)cc1 (centres unmarked) [OC255] | 2 |  | 
Cc1ccc(CN2C(=O)c3ccccc3C(C(=O)N3CCN(C)CC3)C2c2ccc(Cl)cc2)cc1 (centres unmarked) [OC256] | 8 |  | 
Cc1ccc(CN2C(=O)c3ccccc3C(C(=O)N3CCN(C=O)CC3)C2c2ccc(Cl)cc2)cc1 (centres unmarked) [OC258] | 0 |  | 
Cc1ccc(CN2C(=O)c3ccccc3C(C(=O)NCCN(C)C)C2c2ccc(C(F)(F)F)cc2)cc1 (centres unmarked) [OC377] | 35 | 81.6 | EC50 [1, 3]: 6750 nM
CN(C)CCNC(=O)C1c2ccccc2C(=O)N(Cc2ccc(C(F)(F)F)cc2)C1c1ccc(C(F)(F)F)cc1 (centres unmarked) [OC378] | 48 | 43.4 | EC50 [1, 3]: 5690 nM
Cc1ccc(C2C(C(=O)NCCN(C)C)c3ccccc3C(=O)N2Cc2ccc(C(F)(F)F)cc2)cc1 (centres unmarked) [OC379] | 26 | 33.4 | EC50 [1, 3]: 11900 nM
CN(C)CCNC(=O)C1c2ccccc2C(=O)N(Cc2ccc(N)cc2)C1c1ccc(C(F)(F)F)cc1 (centres unmarked) [OC380] | 3 | 72.6 | EC50 [1, 3]: 11400 nM
Cc1ccc(CN2C(=O)c3ccccc3C(C(=O)NCCN(C)C)C2c2ccc(C(F)(F)F)nc2)cc1 (centres unmarked) [OC381] | 41 | 43.7 | EC50 ([1]; read-out: EC50 mean [nM]): 17500 nM
CN(C)CCNC(=O)C1c2ccccc2C(=O)N(Cc2ccc(N(C)C)cc2)C1c1ccc(C(F)(F)F)cc1 (centres unmarked) [OC382] |  | 41.2 | EC50 [1, 3]: 2300 nM
CO[C@H]1C[C@@H]2CC[C@@H](C)[C@@](O)(O2)C(=O)C(=O)N2CCCC[C@H]2C(=O)O[C@H]([C@H](C)C[C@@H]2CC[C@@H](O)[C@H](OC)C2)CC(=O)[C@H](C)/C=C(\C)[C@@H](O)[C@@H](OC)C(=O)[C@H](C)C[C@H](C)/C=C/C=C/C=C/1C [Rapamycin, reference compound] |  | 21.1 | 
